According to patent publication US5466667A, “Prophylactic and therapeutic methods for treating edema with antamanides” (priority 1993, dated 1995):
Entries after “also recorded” stand apart in the source; their conditions may differ. Residues, ends and D or L forms follow the SMILES beside them.

Key:
[1] = test system: bovine aortic endothelial cells (BAEC); assay: Permeability assay: TBA (trypan blue-albumin) uptake by BAEC-covered microcarrier beads; assay type: cell-based; conditions: 1 uM, 30 minutes, versus untreated controls and mixture of phalloidin and Phallin A, FIG. 2
Method: Bovine aortic endothelial cells (BAEC) were prepared, cultured, and harvested as described within Experiment 1. Subsequently, BAEC were subcultured a maximum of three times before seeding onto CYTODEX 3 microcarrier beads (Pharmacia, Inc. ) . Microcarrier beads were suspended in cell media at a concentration of 40,000 microcarriers per milliliter. Beads were suspended by stirring, using a magnetic stirrer. BAEC were seeded onto the beads at the minimum density of 15 cells per bead and allowed to reach confluency. Subsequently, BAEC covered beads were allowed to incubate for 6 days post-confluency to obtain near maximum barrier function of the cell monolayers on the beads. After this incubation period, the BAEC covered beads were ready for use within permeability experiments. […]
BAEC barrier function was measured by TBA uptake per bead; therefore, it is necessary to standardize the number of beads per milliliter. […] Standard curves for absorbance as a function of bead concentration provides a linear relationship as a basis for comparison and extrapolation. […]
BAEC barrier function was then assessed in the following manner: 3.0 ml of BAEC-covered microcarrier beads at a density of 40,000 beads per milliliter were aliquotted into a 4.5 ml test vial in duplicate. […]
This assay procedure uses colorimetry to measure TBA dye absorbance by the beads. […]

[2] = test system: bovine aortic endothelial cells (BAEC); assay: Microfilament and cell surface area measurement in cultured endothelial cells (rhodamine-phalloidin fluorescence microscopy); assay type: cell-based
Excerpt: Bovine abdominal aortas were clamped and tied in-situ and dissected free of the supporting adventitia. Aortas were transported from the abbatoir on ice. Endothelial cells were harvested by gentle ablation of the endothelium following the technique of Shepro et al. [Anat. Rec. 178:523 (1974)]; digested with 0.1% collagenase; and then pelleted and seeded onto 100 mm diameter tissue culture dishes using conventional techniques. The cell medium consisted of DULBECCO'S MODIFIED EAGLES'S MEDIUM medium (hereinafter "DME") at pH 7.4 supplemented with 10% fetal calf serum (hereinafter "FCS"), 0.1% of penicillin, 0.7% streptomycin, 0.1% amphotericin, and 0.1% glutamine. The cell media was replaced every 3 days. The cells were incubated at 37° C. in a 10% carbon dioxide, 90% ambient atmosphere (100% humidified).
This amount of confluency permits excellent visualization of cell spreading and stressed fibers. Individual confluent layers of cells were then treated with 1 uM Phallin A for 30 minutes duration; then fixed in 3.7% phosphate-buffered formaldehyde (pH 7.4) for 15 minutes. The cells on each coverslip were then permeabilized in extraction buffer (composed of 0.5M KCl, 1% triton X-100, 10 mM MgCl2, and 1 mg/ml tosyl-arginine methyl ester (hereinafter "TAME"); 17 ug/ml toluene-sulfonyl fluoride (hereinafter "TSF"); and 0.25 mg/ml DNAse 1 in PBS for a period of 10 minutes. Subsequently, this extraction buffer was removed and the cells washed three times in sequence with PBS. The cells were then stained with Rhodamine-phalloidin (an F-active specific fluorescent probe, Molecular Probes, Inc., Junction City, Oreg.) at 1 unit/200 ul per coverslip for 39 minutes duration. Subsequently, the coverslips were washed five times consecutively in PBS; mounted in a 1:1 ratio mixture of PBS/glycerol; and sealed. The cultured cells on each coverslip were illuminated for fluorescence microscopy. […] For comparative purposes, 1.0 uM of phalloidin (also known as Phallin B) or a mixture of Phallin A and Phhallin B, and PBS alone as the control was similarly evaluated. […] Clearly, the use of Phallin A at concentrations of 10^-6 to 10^-7 M is non-toxic to the cultured endothelial cells.

[3] = cited from earlier work
[4] = test system: endothelial actin cytoskeleton; conditions: cited from earlier work
endothelial cell = conditions: physiological titers and concentrations; cited from earlier work
endothelial cells = conditions: cited from earlier work

For `CC(C)[C@@H]1NC(=O)[C@H](Cc2ccccc2)NC(=O)[C@H](Cc2ccccc2)NC(=O)[C@@H]2CCCN2C(=O)[C@@H]2CCCN2C(=O)[C@H](Cc2ccccc2)NC(=O)[C@H](Cc2ccccc2)NC(=O)[C@H](C)NC(=O)[C@@H]2CCCN2C(=O)[C@@H]2CCCN2C1=O` [Phallin A, antamanide] (cyclo(AFFPPFFVPP)), the “endothelial cell barrier function / resistance to permeability (TBA uptake)” value [1] was “markedly increases cell barrier function”, the “cell surface area and cell perimeter” value ([2]; BAEC at 50% confluency, 1 uM, 30 minutes) was “increased surface area and cell perimeter” and the cell proliferation ([2]; BAEC, 1.0 uM, FIG. 1) was “do not alter in proliferation”. For the same compound, the “ratio of cell perimeter to cell area (roundness)” value ([2]; BAEC, 1.0 uM, FIG. 1) was “diminishes”, the “cell shape (flattening and border extension)” value ([2]; BAEC, 1.0 uM, FIG. 1, comparable to other agents and controls) was “substantial flattening and border extension” and the “toxicity to cultured endothelial cells” value ([2]; concentrations of 10^-6 to 10^-7 M) was “non-toxic”. For the same compound, the “protection of the liver” value ([3]; administered in therapeutic doses) was “protecting the liver completely” and the “annulling toxic effects of fatal doses of phalloidin” value ([3]; in vivo) was “capable of annulling the toxic effects of fetal doses of phalloidin; also recorded: capable at very low dosage of counteracting the effects of an absolutely fatal dose of phalloidin”.

In the case of `C=C1[C@@H](C)[C@H]2[C@H](Cc3ccccc3)NC(=O)[C@]23OC(=O)/C=C/[C@H](O)CCC[C@@H](C)C/C=C/[C@H]3[C@@H]1O` [cytochalasin B], the “permeability for plasma proteins after disruption of endothelial actin cytoskeleton” value [4] is listed as “increase in permeability for plasma proteins”.

In the case of `NC[C@H](O)c1ccc(O)c(O)c1` [norepinephrine], the endothelial cell movement (endothelial cell) is given as “inhibit endothelial cell movement” and the “stress fibers within endothelial cells” value (endothelial cells) is given as “stimulate the assembly of stress fibers”.

For `NCCc1c[nH]cn1` [histamine], the endothelial cell movement (endothelial cell) is listed as “inhibit endothelial cell movement” and the “stress fibers within endothelial cells” value (endothelial cells) is listed as “produces stress fiber disassembly”.

In the case of `NCCc1c[nH]c2ccc(O)cc12` [serotonin], the endothelial cell movement (endothelial cell) is given as “inhibit endothelial cell movement” and the “stress fibers within endothelial cells” value (endothelial cells) is given as “stimulate the assembly of stress fibers”.
